Each structure is given as a SMILES string. Where “and” joins values, the source holds several entries; their conditions need not be identical. Equal entries are not always repeated.

In general, IC50 refers to the midpoint of a concentration-inhibition curve.

Test [1] concerns TNFα release from THP-1 cells. Nature of the test: Inhibition of TNFα release from LPS-stimulated THP-1 cells, ELISA. Type of test: cell-based. Particulars: Homo sapiens, THP-1, THP-1 cells, read-out: [CELL] THP-1, IC50, TNF ALPHA, ELISA. Summed up:
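Human THP-1 monocytes, 10^6 cells/ml in RPMI with 10% FBS, no serum or 1% HSA, preincubated 30 min at 37 °C with compound (≤0.5% DMSO), then stimulated with 10 μg/ml LPS for 18 h. Supernatant TNFα measured by ELISA; IC50 from non-linear dose-response regression.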
On the technique in general: In an ELISA, binding on a coated surface is turned into a signal by an enzyme label.

A further test addresses T1, p38α (Homo sapiens, UniProt Q16539).
T1 construct: p38 MAP Kinases are recombinant human full-length proteins with an amino-terminal GST fusion; GST (N); purchased Upstate Biotechnology Inc; host or cells: E. coli
Kind of test: p38 MAP Kinase assay: inhibition of ATF2 phosphorylation, ELISA. It is filed as biochemical. Particulars: ATF2 phosphorylation; read-out: [ENZ] P38 ALPHA, IC50, ELISA. Summed up: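 GST-tagged full-length human p38 MAP kinase with GST-ATF2 (aa 19–96; 1.25 μM) and 40 μM ATP in HEPES pH 7.5 buffer, without (Method I) or with (Method II) 1% human serum albumin. Compound pre-incubated 15 min at room temperature; reaction 30 min at 37 °C; ATF2 Thr69 phosphorylation measured by ELISA (A450).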

T1 sequence (Q16539 whole entry, the tested form may be a part): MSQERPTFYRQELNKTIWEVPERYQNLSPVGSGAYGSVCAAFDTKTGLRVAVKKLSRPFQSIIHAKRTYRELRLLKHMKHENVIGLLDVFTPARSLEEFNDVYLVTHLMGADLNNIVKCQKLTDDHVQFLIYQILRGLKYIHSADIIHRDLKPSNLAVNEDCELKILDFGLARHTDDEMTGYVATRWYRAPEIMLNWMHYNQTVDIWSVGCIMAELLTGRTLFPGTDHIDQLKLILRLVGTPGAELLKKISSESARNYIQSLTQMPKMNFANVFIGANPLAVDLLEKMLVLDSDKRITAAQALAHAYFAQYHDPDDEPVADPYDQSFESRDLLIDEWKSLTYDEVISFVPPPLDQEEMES

For `O=C(Nc1ccc(Oc2ccnc(NC3CCCC3)n2)c2ccccc12)c1cc(F)cc(N2CCOCC2)c1` [Compound B250, N-(4-{[2-(Cyclopentylamino)pyrimidin-4-yl]oxy}-1-naphthyl)-3-fluoro-5-morpholin-4-ylbenzamide], the IC50 in test [1] was 0.042 µM; on p38α it was 0.0305 µM.
For `CNc1nccc(Oc2ccc(NC(=O)c3cc(F)cc(N4CCOCC4)c3)c3ccccc23)n1` [Compound B251, 3-Fluoro-N-(4-{[2-(methylamino)pyrimidin-4-yl]oxy}-1-naphthyl)-5-morpholin-4-ylbenzamide], the half-inhibitory concentration (IC50) in test [1] came to 0.765 µM; at p38α, 0.135 µM.
In the same order, the values of `CC1CCN(c2cc(F)cc(C(=O)Nc3ccc(Oc4ccnc(N5CCOCC5)n4)c4ccccc34)c2)CC1` [Compound B265, 3-Fluoro-5-(4-methylpiperidin-1-yl)-N-{4-[(2-morpholin-4-ylpyrimidin-4-yl)oxy]-1-naphthyl}benzamide] are 0.765 µM and 5.06 µM.
In the same order, the values of `CC1CCN(c2cc(F)cc(C(=O)Nc3ccc(Oc4ccnc(NC5CCCC5)n4)c4ccccc34)c2)CC1` [Compound B266, N-(4-{[2-(Cyclopentylamino)pyrimidin-4-yl]oxy}-1-naphthyl)-3-fluoro-5-(4-methylpiperidin-1-yl)benzamide] are 0.256 µM and 0.363 µM.
For `CSc1nccc(Oc2ccc(NC(=O)c3cccc(-c4ccc(F)cc4C)c3)c3ccccc23)n1` [Compound B269, 4′-Fluoro-2′-methyl-biphenyl-3-carboxylic acid [4-(2-methylsulfanylpyrimidin-4-yloxy)-naphthalen-1-yl]-amide], the IC50 in test [1] was found to be 0.152 µM; on p38α, 0.162 µM.
In the same order, the values of `O=C(Nc1ccc(OCCN2CCOCC2)c2ccccc12)c1cccc(-c2ccc(C(F)(F)F)cc2)c1` [Compound B271] are 4.03 µM and > 10 µM.
In the same order, the values of `O=C(Nc1ccc(OCCN2CCOCC2)c2ccccc12)c1cccc(-c2ccc3c(c2)OCO3)c1` [Compound B273] are > 10 µM and > 10 µM.
In the same order, the values of `CC(=O)c1ccc(-c2cccc(C(=O)Nc3ccc(OCCN4CCOCC4)c4ccccc34)c2)cc1` [Compound B274] are > 10 µM and > 10 µM.
`O=C(Nc1ccc(OCCN2CCOCC2)c2ccccc12)c1cccc(-c2ccc(F)c(Cl)c2)c1` [Compound B275]: the IC50 in test [1] is 3.57 µM; at p38α, 3.98 µM.
In the same order, the values of `Cc1ccc(-c2cccc(C(=O)Nc3ccc(OCCN4CCOCC4)c4ccccc34)c2)cc1C` [Compound B276] are > 10 µM and > 10 µM.
In the same order, the values of `O=C(Nc1ccc(OCCN2CCOCC2)c2ccccc12)c1cccc(-c2ccc(F)cc2)c1` [Compound B277] are 1.84 µM and 0.777 µM.
In the same order, the values of `O=C(Nc1ccc(OCCN2CCOCC2)c2ccccc12)c1cccc(-c2ccccc2F)c1` [Compound B278, 2′-Fluoro-biphenyl-3-carboxylic acid [4-(2-morpholin-4-yl-ethoxy)-naphthalen-1-yl]-amide] are 3.69 µM and 0.935 µM.
In the case of `CC(=O)c1cccc(-c2cccc(C(=O)Nc3ccc(OCCN4CCOCC4)c4ccccc34)c2)c1` [Compound B279], the half-inhibitory concentration (IC50) (in test [1]; on p38α) was > 10 µM each time.
Take `O=C(Nc1ccc(OCCN2CCOCC2)c2ccccc12)c1cccc(-c2cc(F)ccc2F)c1` [Compound B280]: the IC50 came to 3.52 µM in test [1] and 5.6 µM at p38α.
In the same order, the values of `C=Cc1ccc(-c2cccc(C(=O)Nc3ccc(OCCN4CCOCC4)c4ccccc34)c2)cc1` [Compound B281] are > 10 µM and > 10 µM.
Turning to `O=C(Nc1ccc(OCCN2CCOCC2)c2ccccc12)c1cccc(-c2cccc(Cl)c2Cl)c1` [Compound B282], the IC50 in test [1] was determined as 4.77 µM; on p38α it was 3.67 µM.
For the molecule `O=C(Nc1ccc(OCCN2CCOCC2)c2ccccc12)c1cccc(-c2ccc(Cl)c(Cl)c2)c1` [Compound B283], the IC50 (in test [1]; on p38α) was > 10 µM each time.
For the molecule `COc1ccc(-c2cccc(C(=O)Nc3ccc(OCCN4CCOCC4)c4ccccc34)c2)cc1` [Compound B284], the IC50 (in test [1]; on p38α) was > 10 µM in each case.
In the case of `N#Cc1ccc(-c2cccc(C(=O)Nc3ccc(OCCN4CCOCC4)c4ccccc34)c2)cc1` [Compound B285], the concentration for half-maximal inhibition (IC50) in test [1] was 9.79 µM; on p38α, > 10 µM.
As for `CCOc1cccc(-c2cccc(C(=O)Nc3ccc(OCCN4CCOCC4)c4ccccc34)c2)c1` [Compound B286], the IC50 (in test [1]; at p38α) was > 10 µM in each case.
Regarding `Cc1ccc(C)c(-c2cccc(C(=O)Nc3ccc(OCCN4CCOCC4)c4ccccc34)c2)c1` [Compound B287, 2′,5′-dimethyl-biphenyl-3-carboxylic acid [4-(2-morpholin-4-yl-ethoxy)-naphthalen-1-yl]-amide], the values for the half-maximal inhibitory concentration (IC50) (in test [1]; on p38α) were 5 µM and 0.934 µM, respectively.
As to `O=C(Nc1ccc(OCCN2CCOCC2)c2ccccc12)c1cccc(-c2cccc(F)c2F)c1` [Compound B288], the half-maximal inhibitory concentration (IC50) was determined as 10.1 µM in test [1] and 2.72 µM on p38α.
In the same order, the values of `COc1ccc(F)cc1-c1cccc(C(=O)Nc2ccc(OCCN3CCOCC3)c3ccccc23)c1` [Compound B289] are 3.09 µM and 1.47 µM.
Take `COc1ccc(-c2cccc(C(=O)Nc3ccc(OCCN4CCOCC4)c4ccccc34)c2)cc1F` [Compound B290]: the IC50 (in test [1]; at p38α) was > 10 µM throughout.
Regarding `CCc1ccccc1-c1cccc(C(=O)Nc2ccc(OCCN3CCOCC3)c3ccccc23)c1` [Compound B291], the IC50 was 6.14 µM in test [1] and 9.19 µM on p38α.
`COc1cccc(-c2cccc(C(=O)Nc3ccc(OCCN4CCOCC4)c4ccccc34)c2)c1OC` [Compound B292]: the concentration for half-maximal inhibition (IC50) (in test [1]; at p38α) was > 10 µM each time.
For the molecule `Cc1cc(Cl)ccc1-c1cccc(C(=O)Nc2ccc(OCCN3CCOCC3)c3ccccc23)c1` [Compound B293], the IC50 in test [1] is > 10 µM; at p38α it was 10.3 µM.
In the same order, the values of `COc1ccc(C(C)C)cc1-c1cccc(C(=O)Nc2ccc(OCCN3CCOCC3)c3ccccc23)c1` [Compound B294] are > 10 µM and > 10 µM.
In the same order, the values of `O=C(Nc1ccc(OCCN2CCOCC2)c2ccccc12)c1cccc(-c2cc(Cl)ccc2Cl)c1` [Compound B295] are 2.83 µM and 5.03 µM.
In the same order, the values of `Cc1cccc(-c2cccc(C(=O)Nc3ccc(OCCN4CCOCC4)c4ccccc34)c2)c1C` [Compound B296] are 8.71 µM and 1.88 µM.
For `O=C(Nc1ccc(OCCN2CCOCC2)c2ccccc12)c1cccc(-c2cccc(OC(F)(F)F)c2)c1` [Compound B297], the 50% inhibitory concentration (IC50) (in test [1]; at p38α) was > 10 µM in each case.
As for `CSc1cccc(-c2cccc(C(=O)Nc3ccc(OCCN4CCOCC4)c4ccccc34)c2)c1` [Compound B298], the concentration for half-maximal inhibition (IC50) is > 10 µM in test [1] and 7.37 µM on p38α.
Consider `Cc1ccc(-c2cccc(C(=O)Nc3ccc(OCCN4CCOCC4)c4ccccc34)c2)c(C)c1` [Compound B299], for which the IC50 (in test [1]; on p38α) was > 10 µM throughout.
On to `Cc1cc(-c2cccc(C(=O)Nc3ccc(OCCN4CCOCC4)c4ccccc34)c2)ccc1Cl` [Compound B300], for which the results for the IC50 (in test [1]; on p38α) were 9.06 µM and 9.08 µM, respectively.
In the same order, the values of `CCOc1ccc(Cl)cc1-c1cccc(C(=O)Nc2ccc(OCCN3CCOCC3)c3ccccc23)c1` [Compound B301] are > 10 µM and > 10 µM.
In the same order, the values of `Cc1cc(C)c(-c2cccc(C(=O)Nc3ccc(OCCN4CCOCC4)c4ccccc34)c2)cc1C` [Compound B302] are > 10 µM and > 10 µM.
In the same order, the values of `O=C(Nc1ccc(OCCN2CCOCC2)c2ccccc12)c1cc(Cl)nc(N2CCOCC2)c1` [Compound B305] are 2.48 µM and 1.41 µM.
On to `CN(C)CC(C)(C)CNc1nccc(Oc2ccc(NC(=O)c3cc(F)cc(OC4CCCCC4)c3)c3ccccc23)n1` [Compound B313], for which the half-inhibitory concentration (IC50) in test [1] was 0.0483 µM; at p38α, 0.002 µM and 0.0022 µM.
In the case of `Cc1cc(F)ccc1-c1cccc(C(=O)Nc2ccc(Oc3ccnc(NCC(C)(C)CN(C)C)n3)c3ccccc23)c1` [Compound B314, 4′-Fluoro-2′-methyl-biphenyl-3-carboxylic acid {4-[2-(3-dimethylamino-2,2-dimethyl-propylamino)-pyrimidin-4-yloxy]-naphthalen-1-yl}-amide], the IC50 came out at 0.0412 µM in test [1] and 0.001 µM at p38α.
In the same order, the values of `O=C(Nc1ccc(CN2CCOCC2)c2ccccc12)c1cc(F)cc(N2CCOCC2)c1` [Compound B316, 3-Fluoro-5-morpholin-4-yl-N-(4-morpholin-4-ylmethyl-naphthalen-1-yl)-benzamide] are 0.879 µM and 1.2 µM.
For `CN(C)CC(C)(C)CNc1nccc(Oc2ccc(NC(=O)c3cc(F)cc(N4CCOCC4)c3)c3ccccc23)n1` [Compound B317, N-{4-[2-(3-Dimethylamino-2,2-dimethyl-propylamino)-pyrimidin-4-yloxy]-naphthalen-1-yl}-3-fluoro-5-morpholin-4-yl-benzamide], the results for the IC50 (in test [1]; on p38α) were 0.0238 µM and 0.0099 µM, respectively.

For the origin of these results see patent publication US7829560B2, “1,4-disubstituted naphthalenes as inhibitors of P38 MAP kinase” (Arqule, Inc., priority 2004, dated 2010).
